Reference: ChEMBL document CHEMBL1151270, “Phenolic and triterpene glycosides from the stems of Ilex litseaefolia” (J Nat Prod, 2005)
Values after ≈ are worked out from the molar mass of the structure shown.

Test: Inhibition of lipase

| IC50 | Compound |
| --- | --- |
| > 100 µg/mL | COc1cc(C(=O)OCc2ccc(O[C@@H]3O[C@H](COC(C)=O)[C@@H](O)[C@H](O)[C@H]3O)c(O)c2)ccc1O [LITSEAEFOLOSIDE A] |
| 0.31 µg/mL (≈ 0.504 µM) | COc1cc(C(=O)OCc2ccc(O[C@@H]3O[C@H](COC(=O)/C=C/c4ccc(O)c(O)c4)[C@@H](O)[C@H](O)[C@H]3O)c(O)c2)ccc1O [LITSEAEFOLOSIDE C] |
| > 100 µg/mL | COc1cc(C(=O)OCc2ccc(O[C@@H]3O[C@H](CO)[C@@H](O)[C@H](O)[C@H]3O)c(O)c2)ccc1O [VANILLOYL CALLERYANIN] |
